Experimental data from patent US8143273B2, “Quinolizidine and indolizidine derivatives” (Hoffman-La Roche Inc., priority 2010, dated 2012).

Target: T1, mGlyT-1b (Mus musculus, UniProt P28571)
T1 construct: host or cells: Flp-In CHO
T1 sequence (P28571 1-651 isoform P28571-2): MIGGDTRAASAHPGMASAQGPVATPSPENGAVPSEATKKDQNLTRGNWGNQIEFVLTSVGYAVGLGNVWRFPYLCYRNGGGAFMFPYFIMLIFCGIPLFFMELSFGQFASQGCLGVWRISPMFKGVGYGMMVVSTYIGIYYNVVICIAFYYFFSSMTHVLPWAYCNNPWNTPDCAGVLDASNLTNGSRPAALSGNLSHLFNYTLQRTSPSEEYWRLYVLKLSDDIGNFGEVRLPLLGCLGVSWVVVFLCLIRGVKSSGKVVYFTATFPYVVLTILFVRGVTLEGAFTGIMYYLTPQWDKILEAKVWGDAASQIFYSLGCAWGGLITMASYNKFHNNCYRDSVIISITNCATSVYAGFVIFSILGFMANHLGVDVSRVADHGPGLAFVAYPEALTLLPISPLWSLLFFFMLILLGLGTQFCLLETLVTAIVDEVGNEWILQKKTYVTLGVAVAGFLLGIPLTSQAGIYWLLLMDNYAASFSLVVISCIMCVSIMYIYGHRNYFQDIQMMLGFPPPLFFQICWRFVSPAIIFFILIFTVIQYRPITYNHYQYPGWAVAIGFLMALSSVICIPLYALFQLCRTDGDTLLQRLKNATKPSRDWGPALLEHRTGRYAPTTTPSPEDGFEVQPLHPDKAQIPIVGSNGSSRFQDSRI
Assay: Glycine uptake inhibition assay (mGlyT-1b)
Type: cell-based
Conditions: [3H]-glycine uptake in Flp-In CHO cells transfected with mGlyT-1b cDNA
Experimental: DMEM complete medium: Nutrient mixture F-12 (Gibco Life-technologies), fetal bovine serum (FBS) 5%, (Gibco life technologies), Penicillin/Streptomycinl % (Gibco life technologies), Hygromycin 0.6 mg/ml (Gibco life technologies), Glutamine 1 mM Gibco life technologies)
Uptake buffer (UB): 150 mM NaCl, 10 mM Hepes-Tris, pH 7.4, 1 mM CaCl2, 2.5 mM KCl, 2.5 mM MgSO4, 10 mM (+) D-glucose.
Flp-In™ CHO (Invitrogen Cat no R758-07) cells stably transfected with mGlyTlb cDNA.
Glycine uptake inhibition assay (mGlyT-1b)
On day 1 mammalian cells, (Flp-In™ CHO), transfected with mGlyT-1b cDNA, were plated at the density of 40,000 cells/well in complete F-12 medium, without hygromycin in 96-well culture plates. On day 2, the medium was aspirated and the cells were washed twice with uptake buffer (UB). The cells were then incubated for 20 min at 22° C. with either (i) no potential competitor, (ii) 10 mM non-radioactive glycine, (iii) a concentration of a potential inhibitor. A range of concentrations of the potential inhibitor was used to generate data for calculating the concentration of inhibitor resulting in 50% of the effect (e.g. IC50, the concentration of the competitor inhibiting glycine uptake of 50%). A solution was then immediately added containing [^3H]-glycine 60 nM (11-16 Ci/mmol) and 25 μM non-radioactive glycine. The plates were incubated with gentle shaking and the reaction was stopped by aspiration of the mixture and washing (three times) with ice-cold UB. The cells were lysed with scintillation liquid, shaken 3 hours and the radioactivity in the cells was counted using a scintillation counter.

SMILES	IC50
COc1cc(C(F)(F)F)cc(SC)c1C(=O)N[C@]1(c2ccccc2)CCCN2CCCC[C@@H]21 (racemic) [Example 1, 2-Methoxy-6-methylsulfanyl-N-((1S,R; 9aR,S)-1-phenyl-octahydro-quinolizin-1-yl)-4-trifluoromethyl-benzamide]	80 nM
COc1cc(C(F)(F)F)cc(SC)c1C(=O)NC1(c2ccccc2)CCC2CCCCN2C1 (centres unmarked) [Example 5, 2-Methoxy-6-methylsulfanyl-N-(3-phenyl-octahydro-quinolizin-3-yl)-4-trifluoromethyl-benzamide]	28 nM

Compounds with a lower IC50, results first:

IC50	SMILES
25 nM	COc1cc(C(F)(F)F)cc(SC)c1C(=O)N[C@]1(c2ccccc2)CCCN2CCC[C@@H]21 (racemic) [Example 2, 2-Methoxy-6-methylsulfanyl-N-((8S,R; 8aR,S)-8-phenyl-octahydro-indolizin-8-yl)-4-trifluoromethyl-benzamide]
17 nM	COc1cc(C(F)(F)F)cc(SC)c1C(=O)NC1(c2ccccc2)CCC2CCCN2C1 (single isomer, unassigned; diastereoisomer 1) [Example 3, 2-Methoxy-6-methylsulfanyl-N-(6-phenyl-octahydro-indolizin-6-yl)-4-trifluoromethyl-benzamide (diastereoisomer 1)]
13 nM	COc1cc(C(F)(F)F)cc(SC)c1C(=O)NC1(c2ccccc2)CCC2CCCN2C1 (single isomer, unassigned; diastereoisomer 2) [Example 4, 2-Methoxy-6-methylsulfanyl-N-(6-phenyl-octahydro-indolizin-6-yl)-4-trifluoromethyl-benzamide (diastereoisomer 2)]
